Experiment [1] concerns the target T1, cystine/glutamate antiporter (system Xc′) (Homo sapiens, UniProt Q9UPY5).
T1 construct: endogenous in cells; host or cells: AsPC-1
T1 sequence (Q9UPY5 1-501): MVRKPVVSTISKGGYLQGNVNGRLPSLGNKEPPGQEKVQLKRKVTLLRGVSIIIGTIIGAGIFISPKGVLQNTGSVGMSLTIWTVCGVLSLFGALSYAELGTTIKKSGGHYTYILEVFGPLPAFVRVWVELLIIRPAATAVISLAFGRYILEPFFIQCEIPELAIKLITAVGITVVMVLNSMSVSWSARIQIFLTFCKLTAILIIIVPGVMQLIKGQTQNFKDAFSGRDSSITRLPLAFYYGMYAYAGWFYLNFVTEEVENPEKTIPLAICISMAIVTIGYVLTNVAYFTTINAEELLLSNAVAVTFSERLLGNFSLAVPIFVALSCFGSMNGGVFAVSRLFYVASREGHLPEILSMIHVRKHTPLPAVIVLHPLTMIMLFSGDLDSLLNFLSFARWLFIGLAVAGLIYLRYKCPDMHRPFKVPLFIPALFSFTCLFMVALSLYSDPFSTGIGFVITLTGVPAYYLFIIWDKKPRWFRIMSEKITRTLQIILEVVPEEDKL
T1 sequence (P08195 1-529 partner): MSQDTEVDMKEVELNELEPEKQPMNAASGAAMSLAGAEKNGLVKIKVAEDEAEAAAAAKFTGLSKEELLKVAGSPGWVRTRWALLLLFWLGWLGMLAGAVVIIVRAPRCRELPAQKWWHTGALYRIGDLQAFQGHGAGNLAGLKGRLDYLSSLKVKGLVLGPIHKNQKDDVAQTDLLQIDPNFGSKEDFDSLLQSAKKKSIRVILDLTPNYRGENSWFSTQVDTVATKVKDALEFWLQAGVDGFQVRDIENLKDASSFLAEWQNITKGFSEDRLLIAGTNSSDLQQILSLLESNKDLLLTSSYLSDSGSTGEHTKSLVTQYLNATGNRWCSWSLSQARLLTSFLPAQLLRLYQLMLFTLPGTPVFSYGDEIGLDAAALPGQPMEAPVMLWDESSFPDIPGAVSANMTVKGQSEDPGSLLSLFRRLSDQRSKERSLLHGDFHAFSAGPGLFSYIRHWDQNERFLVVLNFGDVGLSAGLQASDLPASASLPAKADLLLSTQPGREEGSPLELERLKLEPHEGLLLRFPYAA
Kind of experiment: Cystine uptake assay in AsPC-1 cells. The following applies: FIG. 11A; for reduction in cystine uptake: same concentration of each compound (200 μM), DMSO control. The format is cell-based. The protocol: In these experiments, cystine uptake assay was performed as previously described (Dixon, S. J. et al. Cell 2012; 149: 1060-1072). Briefly, […] AsPC-1 cells/well were seeded overnight in 6 well plate. The next day, cells were washed twice in pre-warmed Na^+-free uptake buffer (137 mM choline chloride, 3 mM KCl, 1 mM CaCl2, 1 mM MgCl2, 5 mM D-glucose, 0.7 mM K2HPO4, and 10 mM HEPES [pH 7.4]). Subsequently, cells were incubated for 10 minutes at 37° C. in 1 ml of the uptake buffer to deplete cellular amino acids. The buffer was then replaced with 600 μl uptake buffer containing 200 μM of SW V-49s and 0.12 μCi (80-110 mCi/mmol) of L-[3,3′-^14C]-cystine (American Radiolabeled Chemicals. St Louis. Mo.) and incubated for 3 minutes at 37° C. After that, cells were washed three times with ice-cold uptake buffer and lysed in 500 μl of 0.1 M NaOH. To this lysate, 1 ml of scintillation fluid was added, and radioactive counts per minute were obtained by using a scintillation counter.
To evaluate this mechanism. AsPC-1 cells were plated in 6 well plate for 24 hours. Cells were then treated with the same concentration of SV119, Erastin, combination of SV119 and Erastin. SW V-49s, and DMSO as a control. After that, a cystine uptake assay was performed. […] Erastin, and combination of SV 119 and Erastin, respectively (p=0.004, FIG. 11A).

Experiment [2] deals with reactive oxygen species (ROS). Kind of experiment: Reactive oxygen species (ROS) assay in AsPC-1 cells. It counts as cell-based, human. The following applies: 8 μM; for increase in ROS: 30 min, compared to Erastin, SV119 or combination, FIG. 6; for ROS level compared to others: one hour, FIG. 11B. Here is the method: In FIG. 6, results are shown for reactive oxygen species (ROS) assays of Aspc-1 treated with 8 μM 8 μM SW V-49s, 8 μM Erastin, 8 μM SV119, or 8 μM of an equimolar mixture of Erastin and SV119, or a positive control for 30 min. […] Parent compounds SV119 and Erastin, applied to cells either singly or in combination, had no effect at the same concentration.
ROS measurement was performed using Total ROS/Superoxide Detection Kit (Enzo life sciences, Farmingdale, N.Y.) according to the manufacturer's instructions. Briefly. As PC-1 cells were seeded at a density of 2×10^4 cells/well in a black wall clear bottom 96-well plate for 24 hours. Compounds were dissolved in DMSO and diluted in culture medium to achieve a final concentration of DMSO less than 1%. AsPC-1 cells were treated with 8 μM of SV119, Erastin, and equimolar mixture of SV119 and Erastin. ROS assay was performed one hour after treatment. Cells were treated for one hour, then media was removed and 100 μL/well of ROS/Superoxide Detection Mix was added. Fluorescence signal was measured using a multi-mode microplate reader (Bio-Tek, Winooski, Vt.). The assay was performed in 6 replicates.

The subject of a further experiment is AsPC-1. Kind of experiment: Viability assay (CELLTITER-GLO), 24 hours treatment. It counts as cell-based, human. The protocol: In these experiments, viability assays after 24 hours treatment of human and murine pancreatic cancer cell lines and synovial sarcoma cell lines with SW V-49s or its parent compounds SV119 and Erastin, both singly and in combination, were performed. […] In comparison.
Cytotoxicity of the drugs was evaluated by CELLTITER-GLO®. Luminescent cell viability assay (Promega, Madison, Wis.). Pancreatic cell lines were plated at a density of 2×10^4/well in white 96 well, clear bottom plates for 24 hours prior to treatment. Drugs were dissolved in DMSO and serially diluted in culture medium to achieve the final concentration of DMSO less than 1%. Cells were then treated for 24 hours and 100 μl of the CELLTITER-GLO® reagent was added to each well. The contents of the plates were mixed using an orbital shaker and subsequently incubated for 10 minutes at room temperature. Luminescence signal was measured using a multi-mode microplate reader (BioTek instruments. Winooski, Vt.). Different drug concentrations were assayed in triplicate. To evaluate the efficacy of the drugs, IC50 of the compounds was calculated on a panel of human and mouse derived pancreatic cancer cell lines in vitro. Cells were treated for 24 hours with SW V-49s, SV119, Erastin, and an equimolar mixture of SV119 and Erastin, then CELLTITER-GLO® viability assay was performed.
AsPC-1 and SYO-1 cells were plated in 96 well plate overnight then treated with similar concentrations of Erastin for 24 hours. Viability assay was performed after 24 hours. […] (p<0.0001), (FIG. 10).
A general note: In ATP-based viability assays light output follows the ATP content of the culture.

Read-outs that look alike come from different tables or passages of the source.

`CCOc1ccccc1-n1c(C(C)N2CCN(C(=O)COc3ccc(Cl)cc3)CC2)nc2ccccc2c1=O` (stereo not drawn) [Erastin]: the “reduction in cystine uptake” value in experiment [1] is listed as 41%. In experiment [2], the “increase in ROS” value is reported as “no effect” and the “ROS level compared to others” value was “no increase”. Besides, the death of cells in the experiment on AsPC-1 (40 μM, 24 hours, AsPC-1 cells, FIG. 10) was 2%. Also, the IC50 in the experiment on AsPC-1 (Homo sapiens, ASPC1, 24 h, read-out: IC50 ± SEM, AsPC-1) was more than 150 µM.

For `COc1ccc(C)cc1NC(=O)OC1C[C@H]2CCC[C@@H](C1)N2CCCCCCN` (stereo partly drawn) [SV119, reference compound], the “reduction in cystine uptake” value in experiment [1] is listed as 25%. Also, in experiment [2], the “increase in ROS” value is listed as “no effect” and the “ROS level compared to others” value is recorded as “no increase”. In addition, the IC50 in the experiment on AsPC-1 (24 hours, mean ± SEM, n ≥ 3, read-out: IC50 ± SEM, AsPC-1) was 111 ± 8.3 µM.

Turning to `CCOc1ccccc1-n1c(CN2CCN(C(=O)COc3ccc(CNCCCCCCN4C5CCCC4CC(OC(=O)Nc4cc(C)ccc4OC)C5)cc3)CC2)nc2ccccc2c1=O.O=C(O)C(=O)O` (stereo not drawn) [SW V-49s], in experiment [1], the “fold less cysteine uptake” value is given as 3.7 fold and the “reduction in cystine uptake” value was found to be 85%. Also, in experiment [2], the “increase in ROS” value came to 50% and the “ROS level compared to others” value is 1.5 fold. For the same molecule, the IC50 in the experiment with AsPC-1 (Homo sapiens, ASPC1, 24 h, read-out: IC50 concentration) was 3 µM. Moreover, the IC50 with AsPC-1 (Homo sapiens, ASPC1, 24 hours, mean ± SEM, n ≥ 3, read-out: IC50 ± SEM, AsPC-1) was 3.2 ± 0.3 µM.
